Test results taken from article PMC6146376, “Rational design of new cyclic analogues of the antimicrobial lipopeptide tridecaptin A1” (Chemical Communications (Cambridge, England), 2018).
Non-standard residues stand in square brackets, D forms with d. Residues, ends and D or L forms follow the SMILES beside them. *: point of attachment. d(aIle) = CC[C@H](C)[C@@H](N)C(=O)O; dAllylGly = C=CC[C@@H](N)C(=O)O; AllylGly = C=CC[C@H](N)C(=O)O; dDab = NCC[C@@H](N)C(=O)O; Octanoyl = CCCCCCCC(=O)*; Dab = NCC[C@H](N)C(=O)O

Legend:
[1] = test system: Escherichia coli NCTC 12241; type: cell-based; details: NCTC 12241, 18 h
Experimental: (§1) [formula] Scheme 1 Synthesis of novel cyclic analogues of TriA1. MIC = minimum inhibitory concentration. Determined by microbroth dilutions assays and experiments run in duplicate. Values are shown to two significant figures and reported in μg mL^–1. ^a Strain NCTC 12241. ^b Strain NCTC 10788. ^c Strain NCTC 9633. ^d Strain NCTC 13304. ^e Strain NCTC 5920. […]
(§2) VIII. Antimicrobial testing
(§3) All minimum inhibitory concentrations (MICs) were determined according to Clinical and Standards Laboratory Institute (CLSI) guidelines.5 Briefly, peptides were dissolved in Muller-Hinton Broth (MHB) and serial dilutions made across a 96 well plate. Each well was inoculated with a suspension of the required bacterial strain to reach a final inoculum of 5 x 10^5 colony forming units per mL. The MIC was taken as the lowest concentration with no visible growth after 18 hours. […]

[2] = test system: Staphylococcus aureus NCTC 10788; type: cell-based; details: NCTC 10788, 18 h
Experimental: as §1, §2, §3

[3] = type: physicochemical; details: pH 7.4
Experimental: The D-stereoselective peptidase TriF is a membrane associated protein found in Paenibacillus polymyxa CICC 10580.[7] TriFpep, the soluble periplasmic peptidase domain of TriF, which lacks the signal peptide and four hydrophobic transmembrane helices, was expressed in E. coli BL21 cells as a C-terminal His6-tag protein construct.[7] TriA1 analogues 1–9 were incubated with TriFpep at 37 °C for 12 h and the reaction mixtures analysed by UPLC-MS. […] We were unable to test the stability of Oct-cTriA1(biphenyl) (9) as it is insoluble in the TriF assay mixture. […] These analogues therefore represent a new scaffold of macrocyclic peptides with selective activity against Gram-negative bacteria. […]
All minimum inhibitory concentrations (MICs) were determined according to Clinical and Standards Laboratory Institute (CLSI) guidelines.5 Briefly, peptides were dissolved in Muller-Hinton Broth (MHB) and serial dilutions made across a 96 well plate. […]
TriFpep was expressed and purified as previously described.3 An assay mixture (total volume 30 μL in 25% phosphate-buffered saline (PBS) buffer, pH 7.4) containing TriFpep (2.0 μM) and the desired peptide (added as a DMSO solution to give a final concentration of 20 μM) was prepared and incubated for 12 h at 37 °C. […] The samples were centrifuged at 15,000 rpm for 10 min and 2 μL of the supernatant was analyzed by UPLC–MS system as previously described.3

[4] = test system: bacterial indicator strains; experiment: Antimicrobial activity, strain not named in the sentence (microbroth dilution); type: cell-based; details: highest concentration tested 50 μg mL^–1
Experimental: as §1, §2, §3

Structure (SMILES) | MIC E. coli [1] | MIC S. aureus [2] | solubility in the TriF assay mixture [3] | antimicrobial activity (MIC bound, strain not named) [4]
C=CCSC[C@H](NC(=O)[C@@H](CCN)NC(=O)[C@H](CCN)NC(=O)[C@H](CO)NC(=O)[C@@H](CSCC=C)NC(=O)[C@@H](CO)NC(=O)CNC(=O)[C@@H](CCN)NC(=O)[C@H](NC(=O)CCCCCCC)C(C)C)C(=O)N[C@@H](CCC(=O)O)C(=O)N[C@H](C(=O)N[C@@H](C(=O)N[C@@H](C)C(=O)O)[C@@H](C)CC)C(C)C [Peptide 3, Oct-TriA1-(5-D-Sac, 9-Sac)] | >50 μg mL^–1 | >50 μg mL^–1 | – | –
CCCCCCCC(=O)N[C@@H](C(=O)N[C@H](CCN)C(=O)NCC(=O)N[C@H](CO)C(=O)N[C@H](Cc1c[nH]c2ccccc12)C(=O)N[C@@H](CO)C(=O)N[C@@H](CCN)C(=O)N[C@H](CCN)C(=O)N[C@@H](Cc1ccccc1)C(=O)N[C@@H](CCC(=O)O)C(=O)N[C@H](C(=O)N[C@@H](C(=O)N[C@@H](C)C(=O)O)[C@@H](C)CC)C(C)C)C(C)C [Peptide 1, Oct-TriA1] | 0.39 μg mL^–1 | 25 μg mL^–1 | – | –
CCCCCCCC(=O)N[C@@H](C(=O)N[C@H](CCN)C(=O)NCC(=O)N[C@H](CO)C(=O)N[C@H](CS)C(=O)N[C@@H](CO)C(=O)N[C@@H](CCN)C(=O)N[C@H](CCN)C(=O)N[C@@H](CS)C(=O)N[C@@H](CCC(=O)O)C(=O)N[C@H](C(=O)N[C@@H](C(=O)N[C@@H](C)C(=O)O)[C@@H](C)CC)C(C)C)C(C)C [Peptide 4, Oct-TriA1-(5-D-Cys, 9-Cys)] | >50 μg mL^–1 | >50 μg mL^–1 | – | –
CCCCCCCC(=O)N[C@@H](C(=O)N[C@H](CCN)C(=O)NCC(=O)N[C@H](CO)C(=O)N[C@@H]1CSCc2ccc(cc2)-c2ccc(cc2)CSC[C@@H](C(=O)N[C@@H](CCC(=O)O)C(=O)N[C@H](C(=O)N[C@@H](C(=O)N[C@@H](C)C(=O)O)[C@@H](C)CC)C(C)C)NC(=O)[C@@H](CCN)NC(=O)[C@H](CCN)NC(=O)[C@H](CO)NC1=O)C(C)C [Peptide 9, Oct-cTriA1 (biphenyl)] | – | – | insoluble | > 50 μg mL^–1
C=CC[C@H](NC(=O)[C@@H](CCN)NC(=O)[C@H](CCN)NC(=O)[C@H](CO)NC(=O)[C@@H](CC=C)NC(=O)[C@@H](CO)NC(=O)CNC(=O)[C@@H](CCN)NC(=O)[C@H](NC(=O)CCCCCCC)C(C)C)C(=O)N[C@@H](CCC(=O)O)C(=O)N[C@H](C(=O)N[C@@H](C(=O)N[C@@H](C)C(=O)O)[C@@H](C)CC)C(C)C [Peptide 2, Oct-TriA1-(5-D-Agl, 9-Agl)] (Octanoyl-[dV][dDab]G[dS][dAllylGly]S[Dab][dDab][AllylGly]EV[d(aIle)]A-OH) | >50 μg mL^–1 | >50 μg mL^–1 | – | –
